Experiment [1] concerns the target Cyclin-dependent kinase 4/cyclin D1 (Homo sapiens, UniProt P11802). The experiment can be described thus: Inhibitory activity against human Cyclin D1-cyclin-dependent kinase 4 activity. In kind it is protein-complex assay.
In a further experiment the test system is HCT-116. As to the kind of experiment: Cytotoxic activity against human colon HCT116 cell line. In kind it is functional, cell-based.
Experiment [2] concerns the target Cyclin-dependent kinase 2/cyclin E (Homo sapiens, UniProt P24941). As to the kind of experiment: Inhibition of human Cyclin E-cyclin-dependent kinase 2. The experiment is classed as protein-complex assay.
Experiment [3] addresses Cyclin-dependent kinase 2 (Homo sapiens, UniProt P24941). As to the kind of experiment: Inhibition of Cyclin-dependent kinase 2.
The target of experiment [4] is Cyclin-dependent kinase 4 (Homo sapiens, UniProt P11802). The experiment can be described thus: Inhibition of Cyclin-dependent kinase 4.
Cyclin-dependent kinase 4, sequence (P11802 whole entry): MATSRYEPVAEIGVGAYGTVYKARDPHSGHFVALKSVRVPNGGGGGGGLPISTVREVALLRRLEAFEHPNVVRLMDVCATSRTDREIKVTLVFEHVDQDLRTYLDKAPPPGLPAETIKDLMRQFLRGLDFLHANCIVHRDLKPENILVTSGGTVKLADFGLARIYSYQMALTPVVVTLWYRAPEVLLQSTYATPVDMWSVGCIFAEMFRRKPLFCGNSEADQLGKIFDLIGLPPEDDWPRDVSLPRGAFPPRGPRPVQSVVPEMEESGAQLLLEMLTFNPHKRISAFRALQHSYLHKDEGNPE

Cyclin-dependent kinase 4/cyclin D1, sequence (P11802 whole entry): as above
Cyclin-dependent kinase 4/cyclin D1, sequence (P24385 whole entry, further chain): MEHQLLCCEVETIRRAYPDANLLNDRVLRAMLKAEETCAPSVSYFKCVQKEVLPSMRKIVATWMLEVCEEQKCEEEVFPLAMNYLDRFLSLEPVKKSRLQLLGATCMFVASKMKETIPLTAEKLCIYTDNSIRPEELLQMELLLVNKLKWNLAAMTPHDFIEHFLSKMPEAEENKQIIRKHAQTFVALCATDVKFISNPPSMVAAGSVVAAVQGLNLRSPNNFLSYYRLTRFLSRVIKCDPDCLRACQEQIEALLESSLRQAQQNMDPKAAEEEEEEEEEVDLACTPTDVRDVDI

As a reminder, the IC50 is the concentration that inhibits the measured activity by half. A higher IC50 goes with weaker potency in that assay. Turning to `O=C1NC(=O)c2c1c1c3ccc(Cl)cc3[nH]c1c1c2c2cccc3c2n1CCC3`, the results for the half-inhibitory concentration (IC50) (in experiment [1]; in the experiment with HCT-116; in experiment [2]) were 110 nM, 780 nM and more than 200 nM, respectively.

Regarding `COC(=O)c1ccc2c(c1)[nH]c1c2c2c(c3c4cccc5c4n(c13)CCC5)C(=O)NC2=O`, the concentration for half-maximal inhibition (IC50) in experiment [1] was more than 2000 nM.

Regarding `O=C1NC(=O)c2c1c1c3ccc(C(F)(F)F)cc3[nH]c1c1c2c2cccc3c2n1CCC3`, the figures for the half-maximal inhibitory concentration (IC50) (in experiment [1]; with HCT-116; in experiment [2]) were 290 nM, 1480 nM and more than 2000 nM, respectively.

Regarding `O=C1NC(=O)c2c1c1c3ccc(CO)cc3[nH]c1c1c2c2cccc3c2n1CCC3`, the 50% inhibitory concentration (IC50) was 52 nM in experiment [1] and 340 nM in the experiment on HCT-116.

`O=C1NC(=O)c2c1c1c3ccc(CN4CCOCC4)cc3[nH]c1c1c2c2cccc3c2n1CCC3`: the 50% inhibitory concentration (IC50) amounted to 75 nM in experiment [1] and 370 nM in the experiment on HCT-116.

`O=C1NC(=O)c2c1c1c3ccccc3[nH]c1c1c2c2cccc3c2n1CCCCC3`: the half-inhibitory concentration (IC50) in experiment [1] is 120 nM; in the experiment on HCT-116, 1250 nM; in experiment [2], more than 2000 nM.

As to `O=C1NC(=O)c2c1c1c3ccc(CN4CCSCC4)cc3[nH]c1c1c2c2cccc3c2n1CCC3`, the values for the concentration for half-maximal inhibition (IC50) (in experiment [1]; in the experiment on HCT-116) were 90 nM and 600 nM, respectively.

As to `O=C1NC(=O)c2c1c1c3ccccc3[nH]c1c1c2c2cccc3c2n1CCCC3`, the IC50 in experiment [1] came to 94 nM; in the experiment on HCT-116, 5160 nM; in experiment [2] it was 1000 nM.

Turning to `NCc1ccc2c(c1)[nH]c1c2c2c(c3c4cccc5c4n(c13)CCC5)C(=O)NC2=O`, the IC50 in experiment [1] worked out at 170 nM; in the experiment on HCT-116, 2260 nM.

Take `O=C1NC(=O)c2c1c1c3ccc(F)cc3[nH]c1c1c2c2cccc3c2n1CCC3`: the concentration for half-maximal inhibition (IC50) in experiment [1] was 420 nM; with HCT-116, 2370 nM; in experiment [2], more than 200 nM.

As to `O=C1NC(=O)c2c1c1c3ccccc3[nH]c1c1c2c2cccc3c2n1CCC3`, the IC50 was 110 nM in experiment [1], 1600 nM in the experiment on HCT-116 and more than 1000 nM in experiment [2].

Compound `COC(=O)c1ccc2[nH]c3c(c4c(c5c6cccc7c6n(c35)CCC7)C(=O)NC4=O)c2c1` returned an IC50 in experiment [1] of more than 2000 nM.

For the compound `O=C1NC(=O)c2c1c1c3ccc(-c4ccncc4)cc3[nH]c1c1c2c2cccc3c2n1CCC3`, the results for the IC50 (in experiment [1]; with HCT-116) were 590 nM and 3290 nM, respectively.

Consider `O=C1NC(=O)c2c1c1c3ccc(CN4CCCC4)cc3[nH]c1c1c2c2cccc3c2n1CCC3`, for which the IC50 in experiment [1] worked out at 50 nM; in the experiment with HCT-116, 170 nM.

For the compound `O=C1NC(=O)c2c1c1c3ccc(CN4CCC4)cc3[nH]c1c1c2c2cccc3c2n1CCC3`, the 50% inhibitory concentration (IC50) in experiment [1] was found to be 75 nM; in the experiment on HCT-116, 230 nM.

As for `O=C1NC(=O)c2c1c1c3ccccc3n3c1c1c2c2ccccc2n1[C@H]1CC[C@@H]3O1`, the IC50 in experiment [3] was found to be 540 nM; in experiment [4] it was 680 nM.

For the compound `O=C1NC(=O)c2c1c1c3cc(Br)ccc3[nH]c1c1c2c2cccc3c2n1CCC3`, the concentration for half-maximal inhibition (IC50) in experiment [1] was more than 2000 nM.

Turning to `O=C1NC(=O)c2c1c1c3ccc(-c4cccnc4)cc3[nH]c1c1c2c2cccc3c2n1CCC3`, the concentration for half-maximal inhibition (IC50) was found to be 160 nM in experiment [1] and 1130 nM in the experiment with HCT-116.

Turning to `O=C1NC(=O)c2c1c1c3ccccc3[nH]c1c1c2c2cccc3c2n1CC3`, the IC50 in experiment [1] was 240 nM; in the experiment with HCT-116, 1020 nM; in experiment [2], more than 2000 nM.

In the case of `O=C1NC(=O)c2c1c1c3ccc(Br)cc3[nH]c1c1c2c2cccc3c2n1CCC3`, the values for the IC50 (in experiment [1]; with HCT-116; in experiment [2]) were 90 nM, 2300 nM and 1000 nM, respectively.

In turn, `O=C1NC(=O)c2c1c1c3cc(F)c(F)cc3[nH]c1c1c2c2cccc3c2n1CCC3` registered an IC50 in experiment [1] of more than 2000 nM.

With `O=C1NC(=O)c2c1c1c([nH]c3cccc(F)c31)c1c2c2cccc3c2n1CCC3`, the 50% inhibitory concentration (IC50) in experiment [1] is more than 2000 nM.

In experiment [1], `O=C1NC(=O)c2c1c1c3cc(F)ccc3[nH]c1c1c2c2cccc3c2n1CCC3` gave a 50% inhibitory concentration (IC50) of more than 2000 nM.

Take `O=C1NC(=O)c2c1c1c3ccc(CN4CCCCC4)cc3[nH]c1c1c2c2cccc3c2n1CCC3`: the half-maximal inhibitory concentration (IC50) was 87 nM in experiment [1] and 320 nM in the experiment on HCT-116.

As for `O=C1NC(=O)c2c1c1c3ccc(CN4CCNCC4)cc3[nH]c1c1c2c2cccc3c2n1CCC3`, the results for the half-maximal inhibitory concentration (IC50) (in experiment [1]; in the experiment on HCT-116) were 65 nM and more than 10000 nM, respectively.

On to `O=C1NC(=O)c2c1c1c3ccc(CN4CCCNCC4)cc3[nH]c1c1c2c2cccc3c2n1CCC3`, for which the IC50 in experiment [1] is 79 nM; in the experiment with HCT-116, 7600 nM.

Source of the values: ChEMBL document CHEMBL1146650, “1,7-annulated indolocarbazoles as cyclin-dependent kinase inhibitors” (Bioorg Med Chem Lett, 2004).
